From PMC11064044, “Synthesis and Characterization of Piano-Stool Ruthenium(II)–Arene Complexes of Isatin Schiff Bases: Cytotoxicity and DNA Intercalation” (ACS Omega, 2024)

Assays:
[1] = test system: HEPG2 (hepatocellular carcinoma); experiment: MTT cell viability assay, HEPG2; assay type: cell-based, human
Description: (§1) HEPG2 (ATCC-HB-8065), MCF-7 (ATCC-CRL-3435), PC-3 (ATCC-CRL-1435), and HEK-293 (ATCC-CRL-1573) cells were purchased from American Type Culture Collection (ATCC). Human cancer cells and embryonic kidney cells were maintained in Roswell Park Memorial Institute (RPMI) media supplemented with 10% fetal bovine serum and 1% penicillin–streptomycin solution in a 37 °C incubator with 5% CO2.
(§2) The cell viability was assessed by using an MTT assay. MTT was purchased from Sigma and prepared in phosphate-buffered saline (5 mM). […] After incubation, 20 μL of MTT solution was added to each well and incubated at 37 °C for an additional 4h. Finally, the MTT solution was removed, and 200 μL of DMSO was added to each well. The absorbance was measured at 590 nm by using a spectrometer (Tecan). The IC50 values were calculated from the MTT viability data using the software CalcuSyn (Biosoft).

[2] = test system: MCF-7 (human breast cancer); experiment: MTT cell viability assay, MCF-7; assay type: cell-based
Description: as §1, §2

[3] = test system: PC-3 (human prostate cancer); experiment: MTT cell viability assay, PC-3; assay type: cell-based; conditions: 72 h
Description: as §1, §2

[4] = test system: HEK-293 (human embryonic kidney); experiment: MTT cell viability assay, HEK-293; assay type: cell-based
Description: as §1, §2

| IC50 ([1]; Homo sapiens, HepG2, 72 h) | IC50 ([2]; Homo sapiens, MCF7, 72 h) | IC50 ([3]; Homo sapiens) | Structure (SMILES) | IC50 ([4]; Homo sapiens, HEK293, 72 h) | IC50 ([1]; 72 h) | IC50 ([2]; 72 h) | IC50 [3] | IC50 ([4]; 72 h) |
| --- | --- | --- | --- | --- | --- | --- | --- | --- |
| 43 ± 1.8 µM | 52.6 ± 3.1 µM | 58.1 ± 3.3 µM | CCCCN1C(=O)/C(=N/c2ccccc2)c2ccccc21 [3b] | 61.9 ± 0.6 µM |  |  |  |  |
| 3.9 ± 0.3 µM | 27.2 ± 2.4 µM | 58.4 ± 2 µM | CCCCN1C(=O)/C(=N/c2c(C)cc(C)cc2C)c2ccccc21 [3c] | 26.9 ± 1.6 µM |  |  |  |  |
|  |  |  | N.N.[Cl][Pt][Cl] [cisplatin, reference compound] |  | 22.2 ± 0.5 µM | 20.8 ± 2.3 µM | 18.5 ± 0.7 µM | 10.7 ± 0.8 µM |

| Structure (SMILES) | IC50 ([1]; Homo sapiens, HepG2, 72 h) | IC50 ([2]; Homo sapiens, MCF7, 72 h) | IC50 ([3]; Homo sapiens) | IC50 ([4]; Homo sapiens, HEK293, 72 h) | IC50 ([1]; 72 h) | IC50 ([2]; 72 h) | IC50 [3] | IC50 ([4]; 72 h) |
| --- | --- | --- | --- | --- | --- | --- | --- | --- |
| CCCCN1C(=O)C(=O)c2ccccc21 [compound 2, N-butylisatin] | 226.5 ± 1.5 µM | 100 ± 2.4 µM | 58.2 ± 3.2 µM | 127 ± 2.8 µM |  |  |  |  |
